The values below come from article PMC11221653, “Isolation and characterization of plant-derived exosome-like nanoparticles from Carica papaya L. fruit and their potential as anti-inflammatory agent” (PLOS ONE, 2024).

On the set-up of assay [1]: method as in PMID 35494787. Particulars: concentration 17.5 μM; ref [87]; cited from earlier work.
Assay [2] concerns NO production in LPS-induced RAW 264.7 cells. The assay can be described thus: Nitric oxide assay (Griess reagent, nitrite). The format is cell-based. As to conditions: PDENs 5, 10, 20 μg/mL or dexamethasone 1 μg/ml for 24 h, then LPS 50 ng/mL for 6 h. Here is the method:
RAW 264.7 cells were cultured in 96-well plates, with a density of 1 × 10^4 cells per well and incubated for 24 hours. Following this, they were exposed to various concentrations of PDENs (0, 5, 10, and 20 μg/ml) and dexamethasone (1 μg/ml) (Sigma-Aldrich, USA) for 24 hours. Thereafter, the cells were treated with LPS (50 ng/mL) (Sigma-Aldrich, USA) for an additional 6 hours. To measure the nitric oxide in the culture media, we utilized the Protocol from Griess Reagent Kit for Nitrite Determination (G-7921) (Thermo Fisher Scientific, USA). Briefly, 50 microliters of cell culture medium from each treatment were mixed with Griess reagent (1:1) and incubated for 15 minutes in the dark. The samples were measured at a wavelength of 540 nm using a microplate reader Bio-Rad iMark.
(Nitrite, measured by Griess reagent, commonly stands in for NO production.)

For the compound `CC1=C(O)C(=O)C(O)CO1` (stereo not drawn) [DDMP, 2,3-dihydro-3,5-dihydroxy-6-methyl-4H-pyran-4-one], in assay [1], the radical scavenging activity is listed as 81.1%.
`Cc1cc(C(C)(C)C)c(O)c(C(C)(C)C)c1` [butylated hydroxytoluene]: the radical scavenging activity in assay [1] was 58.4%.
`C[C@@H]1C[C@H]2[C@@H]3CCC4=CC(=O)C=C[C@]4(C)[C@@]3(F)[C@@H](O)C[C@]2(C)[C@@]1(O)C(=O)CO` [dexamethasone]: in assay [2], the “NO production versus LPS-induced cells” value is “significantly reduce NO production”.
